According to article PMC11283614 (Veterinary World, 2024):
Values after ≈ are worked out from the molar mass of the structure shown. Read-outs that look alike come from different tables or passages of the source. Marks after values point to notes of the source that are not given here.

Legend:
in vitro = conditions: African green monkey
[1] = Syrian, in vivo; for Number of dead hamsters after 2 days / Number of dead hamsters after 7 days: hamster
[2] = system: SARS-CoV-2 (delta strain); parameters: species or system Syrian hamsters; conditions: hamster, in vivo
SARS-CoV-2 [3] = test: Suppression of SARS-CoV-2 replication in Vero cells, CPE-based titration of supernatant; format: cell-based; conditions: for Time during which viral activity was inhibited: 100 TCD50/mL SARS-CoV-2, compounds added after 1 h virus incubation; for Suppression of viral activity: up to a dilution of 100 TCD50/ml
SARS-CoV-2 [4] = test: Blood cell populations (blood smears) of infected hamsters; format: in vivo, Syrian hamsters; conditions: 7 dpi, therapeutic action
[5] = system: SARS-CoV-2 (delta strain); parameters: species or system Syrian hamsters; conditions: hamster, in vivo; remark: listed apart in the source
SARS-CoV-2 [6] = test: Myelogram / bone marrow cell populations of infected hamsters; format: in vivo, Syrian hamsters
VERO cells = conditions: incubation 24 h

With `Cc1cc(C)n(-c2ccc3nnc(C)n3n2)n1` [compound 8] the CC50 (in vitro) was 480 µg/mL (≈ 2100 µM), the “Number of dead hamsters after 2 days” value ([1]; 0.3 mg/kg) was 0 and the “Number of dead hamsters after 7 days” value ([1]; 0.3 mg/kg) was 0. The “Number of dead hamsters after 2 days” value ([1]; 1.5 mg/kg) was 0, the “Number of dead hamsters after 7 days” value ([1]; 1.5 mg/kg) was 0 and the “Development of lung injury (micro-CT)” value [2] was “inhibited”. For the same molecule, the “Time during which viral activity was inhibited” value (SARS-CoV-2 [3]) was 24 to 72 h, the “Suppression of viral activity” value (SARS-CoV-2 [3]) was “almost completely suppressed” and the “Blood cells: Band” value (SARS-CoV-2 [4]) was 10.0 ± 2.7%. For the same molecule, the “Blood cells: Destroyed” value (SARS-CoV-2 [4]) was 1.9 ± 0.3%, the “Blood cells: Eosinophil” value (SARS-CoV-2 [4]) was 0.5 ± 0.1% and the “Blood cells: Lymphoblast” value (SARS-CoV-2 [4]) was 1.1 ± 0.1%. For the same molecule, the “Blood cells: Lymphocyte” value (SARS-CoV-2 [4]) was 77.2 ± 8.1%, the “Blood cells: Metamyelocyte” value (SARS-CoV-2 [4]) was 2.0 ± 0.6% and the “Blood cells: Monoblast” value (SARS-CoV-2 [4]) was 2.9 ± 0.5%. For the same molecule, the “Blood cells: Monocyte” value (SARS-CoV-2 [4]) was 1.2 ± 0.1%, the “Blood cells: Segment” value (SARS-CoV-2 [4]) was 4% and the “LN section histology (H&E)” value [5] was “preserved structure and cellularity”. The “Lung pathology (diffuse lymphocytic-macrophage infiltrates)” value [5] was “Mild pathological manifestations”.

In the case of `CSc1nc(C)cc2nnc(SCCOc3ccccc3)n12` [5d], the “Effect on bone marrow changes seen in the positive control group” value (SARS-CoV-2 [6]; 9th day) is reported as “does not obstruct the similar bone marrow changes”, the “Recovery of bone marrow cell populations compared to the positive control” value (SARS-CoV-2 [6]; 18th day) is reported as “more rapid recovery of all cell populations” and the “Myelogram: Band” value (SARS-CoV-2 [6]; infected hamsters, 9 dpi) is reported as 26.1 ± 4.4%. The “Myelogram: Basophil” value (SARS-CoV-2 [6]; infected hamsters, 9 dpi) was 0.1 ± 0.04%, the “Myelogram: Basophil erythroblast” value (SARS-CoV-2 [6]; infected hamsters, 9 dpi) was 4.6 ± 0.9% and the “Myelogram: Destroyed” value (SARS-CoV-2 [6]; infected hamsters, 9 dpi) was 3.2 ± 0.3%. The “Myelogram: Eosinophil” value (SARS-CoV-2 [6]; infected hamsters, 9 dpi) was 3.2 ± 0.4%, the “Myelogram: Limph.patol.” value (SARS-CoV-2 [6]; infected hamsters, 9 dpi) was 1.1 ± 0.4% and the “Myelogram: Lymphoblast” value (SARS-CoV-2 [6]; infected hamsters, 9 dpi) was 3.5 ± 0.6%. For the same molecule, the “Myelogram: Lymphocyte” value (SARS-CoV-2 [6]; infected hamsters, 9 dpi) was 8.9 ± 1.2%, the “Myelogram: Macroph. Island” value (SARS-CoV-2 [6]; infected hamsters, 9 dpi) was 1.6 ± 0.03% and the “Myelogram: Macroph. Resident” value (SARS-CoV-2 [6]; infected hamsters, 9 dpi) was 1.6 ± 0.05%. For the same molecule, the “Myelogram: Megakaryoblast” value (SARS-CoV-2 [6]; infected hamsters, 9 dpi) was 1.6 ± 0.02%, the “Myelogram: Megakaryocyte azurophil” value (SARS-CoV-2 [6]; infected hamsters, 9 dpi) was 1.6 ± 0.1% and the “Myelogram: Megakaryocyte basophil” value (SARS-CoV-2 [6]; infected hamsters, 9 dpi) was 1.6 ± 0.1%. The “Myelogram: Metamyelocyte” value (SARS-CoV-2 [6]; infected hamsters, 9 dpi) was 5.2 ± 1.0%, the “Myelogram: Mitos” value (SARS-CoV-2 [6]; infected hamsters, 9 dpi) was 1.6 ± 0.02% and the “Myelogram: Monoblast” value (SARS-CoV-2 [6]; infected hamsters, 9 dpi) was 2.9 ± 0.7%. For the same molecule, the “Myelogram: Monocyte” value (SARS-CoV-2 [6]; infected hamsters, 9 dpi) was 3.8 ± 0.8%, the “Myelogram: Myeloid” value (SARS-CoV-2 [6]; infected hamsters, 9 dpi) was 3.9 ± 0.5% and the “Myelogram: Ortochrom erythroblast” value (SARS-CoV-2 [6]; infected hamsters, 9 dpi) was 8.8 ± 0.9%. The “Myelogram: Pathol neutrophil” value (SARS-CoV-2 [6]; infected hamsters, 9 dpi) was 2.1 ± 0.5%, the “Myelogram: Polychromatophil erythroblast” value (SARS-CoV-2 [6]; infected hamsters, 9 dpi) was 5.9 ± 2.1% and the “Myelogram: Proerythroblast” value (SARS-CoV-2 [6]; infected hamsters, 9 dpi) was 3.1 ± 0.5%. For the same molecule, the “Myelogram: Segment” value (SARS-CoV-2 [6]; infected hamsters, 9 dpi) was 3.7 ± 0.5%, the “Myelogram: Band” value (SARS-CoV-2 [6]; infected hamsters, 18 dpi) was 15.6 ± 3.1 % and the “Myelogram: Basophil” value (SARS-CoV-2 [6]; infected hamsters, 18 dpi) was 0.01 ± 0.01%. The “Myelogram: Destroyed” value (SARS-CoV-2 [6]; infected hamsters, 18 dpi) was 0.1 ± 0.01%, the “Myelogram: Eosinophil” value (SARS-CoV-2 [6]; infected hamsters, 18 dpi) was 0.2 ± 0.01% and the “Myelogram: Limph.patol.” value (SARS-CoV-2 [6]; infected hamsters, 18 dpi) was 0.1 ± 0.04 %. For the same molecule, the “Myelogram: Lymphoblast” value (SARS-CoV-2 [6]; infected hamsters, 18 dpi) was 2.3 ± 0.5%, the “Myelogram: Lymphocyte” value (SARS-CoV-2 [6]; infected hamsters, 18 dpi) was 5.2 ± 0.8% and the “Myelogram: Macroph. Island” value (SARS-CoV-2 [6]; infected hamsters, 18 dpi) was 0.1 ± 0.01%. The “Myelogram: Macroph. Resident” value (SARS-CoV-2 [6]; infected hamsters, 18 dpi) was 0.1 ± 0.01%, the “Myelogram: Megakaryoblast” value (SARS-CoV-2 [6]; infected hamsters, 18 dpi) was 0.03 ± 0.02% and the “Myelogram: Megakaryocyte azurophil” value (SARS-CoV-2 [6]; infected hamsters, 18 dpi) was 0.01 ± 0.01%. The “Myelogram: Megakaryocyte basophil” value (SARS-CoV-2 [6]; infected hamsters, 18 dpi) was 0.01 ± 0.01%, the “Myelogram: Metamyelocyte” value (SARS-CoV-2 [6]; infected hamsters, 18 dpi) was 20.1 ± 4.3% and the “Myelogram: Mitos” value (SARS-CoV-2 [6]; infected hamsters, 18 dpi) was 0.01 ± 0.01%. The “Myelogram: Monoblast” value (SARS-CoV-2 [6]; infected hamsters, 18 dpi) was 1.0 ± 0.02%, the “Myelogram: Monocyte” value (SARS-CoV-2 [6]; infected hamsters, 18 dpi) was 1.5 ± 0.4% and the “Myelogram: Myeloid” value (SARS-CoV-2 [6]; infected hamsters, 18 dpi) was 14.3 ± 2.7%. The “Myelogram: Pathol neutrophil” value (SARS-CoV-2 [6]; infected hamsters, 18 dpi) was 0.1 ± 0.01 %, the “Myelogram: Polychromatophil erythroblast” value (SARS-CoV-2 [6]; infected hamsters, 18 dpi) was 17.9 ± 2.3 % and the “Myelogram: Segment” value (SARS-CoV-2 [6]; infected hamsters, 18 dpi) was 3.3 ± 0.3 %. For the same molecule, the CC50 (in vitro) was 320 µg/mL (≈ 963 µM), the “Number of dead hamsters after 2 days” value ([1]; 0.2 mg/kg) was 0 and the “Number of dead hamsters after 7 days” value ([1]; 0.2 mg/kg) was 0. The “Number of dead hamsters after 2 days” value ([1]; 1 mg/kg) was 0, the “Number of dead hamsters after 7 days” value ([1]; 1 mg/kg) was 0 and the “Development of lung injury (micro-CT)” value [2] was “inhibited”. For the same molecule, the “Time during which viral activity was inhibited” value (SARS-CoV-2 [3]) was 24 to 72 h, the “Suppression of viral activity” value (SARS-CoV-2 [3]) was “almost completely suppressed” and the “Blood cells: Band” value (SARS-CoV-2 [4]) was 19 ± 4.8%. For the same molecule, the “Blood cells: Basophil” value (SARS-CoV-2 [4]) was 0.01%, the “Blood cells: Destroyed” value (SARS-CoV-2 [4]) was 1.0% and the “Blood cells: Eosinophil” value (SARS-CoV-2 [4]) was 0.1 ± 0.05%. For the same molecule, the “Blood cells: Lymphoblast” value (SARS-CoV-2 [4]) was 0.9 ± 0.2%, the “Blood cells: Lymphocyte” value (SARS-CoV-2 [4]) was 65 ± 9.3% and the “Blood cells: Metamyelocyte” value (SARS-CoV-2 [4]) was 2 ± 0.5%. For the same molecule, the “Blood cells: Monocyte” value (SARS-CoV-2 [4]) was 2.1 ± 0.3%, the “Blood cells: Myeloid” value (SARS-CoV-2 [4]) was 1.1 ± 0.1% and the “Blood cells: Segment” value (SARS-CoV-2 [4]) was 8.8%. For the same molecule, the “BM section histology (H&E)” value [5] was “preserved structure and cellularity” and the BM smear [5] was “restored erythroid population”.

For `COC(=O)CSc1nnc2cc(C)nc(SC)n12` [5c], the CC50 (in vitro) was 40 µg/mL (≈ 141 µM).

Work on `CSc1nnc2ccc(-n3nc(C)cc3C)nn12` [10a] yielded a CC50 (in vitro) of 40 µg/mL (≈ 154 µM).

For `CSc1nnc2cc(C)nc(SCc3ccccc3)n12` [6a], the CC50 (in vitro) was 20 µg/mL (≈ 66.1 µM).

In the case of `Cc1cc(C)n(-c2ccc3nnc(SCC(N)=O)n3n2)n1` [10b], the CC50 (in vitro) is reported as 240 µg/mL (≈ 791 µM), the “Number of dead hamsters after 2 days” value ([1]; 0.16 mg/kg) is reported as 0 and the “Number of dead hamsters after 7 days” value ([1]; 0.16 mg/kg) is reported as 0. For the same molecule, the “Number of dead hamsters after 2 days” value ([1]; 0.8 mg/kg) was 0, the “Number of dead hamsters after 7 days” value ([1]; 0.8 mg/kg) was 1 ^* and the “Autopsy and histological findings in dead hamster” value ([1]; 0.8 mg/kg) was “* Autopsy and histological studies revealed massive hemorrhages in the abdominal cavity and leukopenia. In all investigated preparations except 10b, no lethal effect was observed throughout the experiment. No abnormal appearance or behavior was noted in all investigated groups”. For the same molecule, the “Development of lung injury (micro-CT)” value [2] was “inhibited”, the “Time during which viral activity was inhibited” value (SARS-CoV-2 [3]) was 24 to 72 h and the “Suppression of viral activity” value (SARS-CoV-2 [3]) was “almost completely suppressed”. The “Blood cells: Band” value (SARS-CoV-2 [4]) was 27 ± 8.6%, the “Blood cells: Destroyed” value (SARS-CoV-2 [4]) was 0.9 ± 0.02% and the “Blood cells: Eosinophil” value (SARS-CoV-2 [4]) was 0.1 ± 0.01%. For the same molecule, the “Blood cells: Lymphoblast” value (SARS-CoV-2 [4]) was 4.0 ± 0.3%, the “Blood cells: Lymphocyte” value (SARS-CoV-2 [4]) was 42.3 ± 6.7% and the “Blood cells: Metamyelocyte” value (SARS-CoV-2 [4]) was 1.0 ± 0.1%. The “Blood cells: Monocyte” value (SARS-CoV-2 [4]) was 3.9 ± 0.9%, the “Blood cells: Myeloid” value (SARS-CoV-2 [4]) was 1 ± 0.05% and the “Blood cells: Pathol neutrophil” value (SARS-CoV-2 [4]) was 2.8 ± 0.7%. The “Blood cells: Segment” value (SARS-CoV-2 [4]) was 20% and the “Liver pathology (leukocyte / neutrophilic diapedesis)” value [5] was “Absence of neutrophils in liver tissues”.

For `CSc1nnc2cc(C)nc(SC)n12` [5a], the CC50 (in vitro) was 240 µg/mL (≈ 1060 µM).

With `Cc1cc(C)n(-c2ccc3nnc(SCCOc4ccccc4)n3n2)n1` [10d] the CC50 (in vitro) was 480 µg/mL (≈ 1310 µM), the “Number of dead hamsters after 2 days” value ([1]; 0.32 mg/kg) was 0 and the “Number of dead hamsters after 7 days” value ([1]; 0.32 mg/kg) was 0. The “Number of dead hamsters after 2 days” value ([1]; 1.6 mg/kg) was 0, the “Number of dead hamsters after 7 days” value ([1]; 1.6 mg/kg) was 0 and the “Development of lung injury (micro-CT)” value [2] was “inhibited”. For the same molecule, the “Time during which viral activity was inhibited” value (SARS-CoV-2 [3]) was 24 to 72 h, the “Suppression of viral activity” value (SARS-CoV-2 [3]) was “almost completely suppressed” and the “Blood cells: Band” value (SARS-CoV-2 [4]) was 20.7 ± 7.3%. The “Blood cells: Basophil” value (SARS-CoV-2 [4]) was 0.01 ± 0.005%, the “Blood cells: Eosinophil” value (SARS-CoV-2 [4]) was 0.5 ± 0.01% and the “Blood cells: Lymphoblast” value (SARS-CoV-2 [4]) was 0.9 ± 0.1%. For the same molecule, the “Blood cells: Lymphocyte” value (SARS-CoV-2 [4]) was 58 ± 6.2%, the “Blood cells: Metamyelocyte” value (SARS-CoV-2 [4]) was 3.1 ± 0.4% and the “Blood cells: Monoblast” value (SARS-CoV-2 [4]) was 1.0 ± 0.1%. For the same molecule, the “Blood cells: Pathol neutrophil” value (SARS-CoV-2 [4]) was 0.9 ± 0.1%, the “Blood cells: Segment” value (SARS-CoV-2 [4]) was 13% and the Spleen smear [5] was “proliferation of late erythroblasts”.

In the case of `Cc1cc2nnc(SCCOc3ccccc3)n2c(SCc2ccccc2)n1` [6d], the CC50 (in vitro) is reported as 320 µg/mL (≈ 783 µM) and the “Monolayer preservation of VERO cells (toxicity)” value (VERO cells) is reported as “-”.
